≈ marks a conversion by molar mass, not a printed value.
Assays:
[1] = C.A. 93 38279f; cited from earlier work
[2] = test system: C. diphtheriae SS 19; assay type: cell-based; conditions: Brain Heart Infusion, estolate and RV11-RV15 previously hydrolized, unit assumed
[3] = test system: N. meningitidis SS 04; assay type: cell-based; conditions: Brain Heart Infusion, estolate and RV11-RV15 previously hydrolized, unit assumed
[4] = test system: E. coli SS 04; assay type: cell-based; conditions: Brain Heart Infusion, estolate and RV11-RV15 previously hydrolized, unit assumed
[5] = test system: Staph. albus SS 04; assay type: cell-based; conditions: Brain Heart Infusion, estolate and RV11-RV15 previously hydrolized, unit assumed
[6] = Histological examination of bronchi after SO2 inhalation; assay type: in vivo, Sprague Dawley male rats; conditions: oral, 500 mg/kg
[7] = test system: H. influentiae SS 02; assay type: cell-based; conditions: Brain Heart Infusion, estolate and RV11-RV15 previously hydrolized, unit assumed
[8] = Hematic levels in the healthy volunteer; assay type: in vivo, healthy volunteers; conditions: 500 mg of erythromycin, average; for Hematic levels in the healthy volunteer: oral
From the text: For the dosing, the microbiological method using a B. subtilis strain was adopted.

[9] = test system: D. pneumoniae SS 23; assay: Experimental infection induced by D. pneumoniae SS 23; assay type: in vivo, Swiss white mice; conditions: Streptococcus pneumoniae, SS23, in Mus musculus, po, 168 h, os; D. pneumoniae SS 23; mg/kg of erythromycin; survival after 7 days; read-out: ED50 (reliability limits)
Method: (§1) Swiss white mice of 20 g body weight were used, infected by parenteral administration of lethal amounts of pathogenic […] of Staph. aureus SS 07 and D. pneumoniae SS 23.
(§2) The antibiotics were administered at the time of injecting the infecting germ and 6 and 24 hours later. On the basis of the survival after 7 days, the ED50 values were determined, as reported in the following table II and III, wherein the reliability limits are indicated in brackets.

[10] = test system: Pr. vulgaris SS 10; assay type: cell-based; conditions: Brain Heart Infusion, estolate and RV11-RV15 previously hydrolized, unit assumed
[11] = test system: S. lutea ATCC 9341; assay type: cell-based; conditions: Brain Heart Infusion, estolate and RV11-RV15 previously hydrolized, unit assumed
[12] = test system: Br. melitensis SS 19; assay type: cell-based; conditions: unit assumed
[13] = test system: B. subtilis SS 127; assay type: cell-based; conditions: Brain Heart Infusion, estolate and RV11-RV15 previously hydrolized, unit assumed
[14] = test system: Pr. mirabilis SS 09; assay type: cell-based; conditions: Brain Heart Infusion, estolate and RV11-RV15 previously hydrolized, unit assumed
[15] = test system: H. tubercolosis SS 03; assay type: cell-based; conditions: Brain Heart Infusion, estolate and RV11-RV15 previously hydrolized, unit assumed
From the text: (§3) In the following table I the MIC/ml values are indicated corresponding to the lowest concentration capable of inducing a complete inhibition of the bacterial development.

[16] = test system: Kl. pneumoniae SS 04; assay type: cell-based; conditions: Brain Heart Infusion, estolate and RV11-RV15 previously hydrolized, unit assumed
From the text: as §3

[17] = test system: E. coli SS 06; assay type: cell-based; conditions: Brain Heart Infusion, estolate and RV11-RV15 previously hydrolized, unit assumed
[18] = test system: Sr. marcescens SS 03; assay type: cell-based; conditions: Brain Heart Infusion, estolate and RV11-RV15 previously hydrolized, unit assumed
[19] = Mucolytic activity: obstruction of the bronchial tract after SO2 inhalation; assay type: in vivo, Sprague Dawley male rats; conditions: oral, 500 mg/kg; SO2, 15 days
[20] = test system: H. pertussis SS 03; assay type: cell-based; conditions: Brain Heart Infusion, estolate and RV11-RV15 previously hydrolized, unit assumed
[21] = test system: Staph. aureus SS 09; assay type: cell-based; conditions: Brain Heart Infusion, estolate and RV11-RV15 previously hydrolized, unit assumed
[22] = test system: Staph. albus SS 03; assay type: cell-based; conditions: Brain Heart Infusion, estolate and RV11-RV15 previously hydrolized, unit assumed
[23] = test system: Ps. aeruginosa SS 10; assay type: cell-based; conditions: Brain Heart Infusion, estolate and RV11-RV15 previously hydrolized, unit assumed
[24] = test system: Kl. aerogenes SS 71; assay type: cell-based; conditions: Brain Heart Infusion, estolate and RV11-RV15 previously hydrolized, unit assumed
[25] = test system: D. pneumoniae SS 23; assay type: cell-based; conditions: Brain Heart Infusion, estolate and RV11-RV15 previously hydrolized, unit assumed
[26] = test system: Citrobacter SS 09; assay type: cell-based; conditions: Brain Heart Infusion, estolate and RV11-RV15 previously hydrolized, unit assumed
[27] = test system: Br. abortus SS 7; assay type: cell-based; conditions: Brain Heart Infusion, estolate and RV11-RV15 previously hydrolized, unit assumed
[28] = test system: E. coli SS 07; assay type: cell-based; conditions: Brain Heart Infusion, estolate and RV11-RV15 previously hydrolized, unit assumed
[29] = in vivo, po, 100 mg/kg, 6 h
[30] = test system: B. anthranis SS 08; assay type: cell-based; conditions: Brain Heart Infusion, estolate and RV11-RV15 previously hydrolized, unit assumed
[31] = test system: C. albicans SS 04; assay type: cell-based; conditions: Brain Heart Infusion, estolate and RV11-RV15 previously hydrolized, unit assumed
[32] = test system: E. cloacae SS 07; assay type: cell-based; conditions: Brain Heart Infusion, estolate and RV11-RV15 previously hydrolized, unit assumed
[33] = test system: Strept. haemolyticus SS 17; assay type: cell-based; conditions: Brain Heart Infusion, estolate and RV11-RV15 previously hydrolized, unit assumed
[34] = test system: Citrobacter SS 05; assay type: cell-based; conditions: Brain Heart Infusion, estolate and RV11-RV15 previously hydrolized, unit assumed
[35] = test system: Staph. aureus SS 08; assay type: cell-based; conditions: Brain Heart Infusion, estolate and RV11-RV15 previously hydrolized, unit assumed
[36] = test system: Strept. faecalis SS 19; assay type: cell-based; conditions: Brain Heart Infusion, estolate and RV11-RV15 previously hydrolized, unit assumed
[37] = test system: B. cereus ATCC 11778; assay type: cell-based; conditions: Brain Heart Infusion, estolate and RV11-RV15 previously hydrolized, unit assumed
[38] = test system: S. infantis SS 08; assay type: cell-based; conditions: Brain Heart Infusion, estolate and RV11-RV15 previously hydrolized, unit assumed
[39] = test system: B. subtilis ATCC 6633; assay type: cell-based; conditions: Brain Heart Infusion, estolate and RV11-RV15 previously hydrolized, unit assumed
[40] = test system: B. anthranis SS 09; assay type: cell-based; conditions: B. anthranis SS 09 (14 bis); Brain Heart Infusion; estolate and RV11-RV15 previously hydrolized; unit assumed
[41] = in vivo; conditions: rat, po, 100 mg/kg, Hematic levels in the rat
[42] = test system: Staph. aureus SS 07; assay: Experimental infection induced by Staph. aureus SS 07; assay type: in vivo, Swiss white mice; conditions: Staphylococcus aureus, SS07, in Mus musculus, po, 168 h, os; Staph. aureus SS 07; mg/kg of erythromycin; survival after 7 days; read-out: ED50 (reliability limits)
Method: as §1, §2

[43] = test system: E. aerogenes SS 011; assay type: cell-based; conditions: Brain Heart Infusion, estolate and RV11-RV15 previously hydrolized, unit assumed
[44] = test system: Cl. tetani SS 17; assay type: cell-based; conditions: Brain Heart Infusion, estolate and RV11-RV15 previously hydrolized, unit assumed
[45] = test system: S. heidelberg SS 18; assay type: cell-based; conditions: Brain Heart Infusion, estolate and RV11-RV15 previously hydrolized, unit assumed
[46] = test system: Strept. haemolyticus SS 18; assay type: cell-based; conditions: Brain Heart Infusion, estolate and RV11-RV15 previously hydrolized, unit assumed
[47] = test system: N. gonorreae SS 27; assay type: cell-based; conditions: Brain Heart Infusion, estolate and RV11-RV15 previously hydrolized, unit assumed
[48] = test system: E. coli SS 05; assay type: cell-based; conditions: Brain Heart Infusion, estolate and RV11-RV15 previously hydrolized, unit assumed

## CC(=O)N[C@@H](CS)C(=O)O [acetylcysteine]
[1]
  action with respect to the activity of antibiotics: inhibiting action with respect to the activity of antibiotics

## CCC(=O)O[C@H]1[C@H](O[C@@H]2[C@@H](C)[C@H](O[C@H]3C[C@@](C)(OC)[C@@H](O)[C@H](C)O3)[C@@H](C)C(=O)O[C@H](CC)[C@@](C)(O)[C@H](O)[C@@H](C)C(=O)[C@H](C)C[C@@]2(C)O)O[C@H](C)C[C@@H]1N(C)C [erythromycin estolate, reference compound]
[2]
  MIC: 0.025 µg/mL (≈ 0.0316 µM)
[3]
  MIC: 1.5 µg/mL (≈ 1.9 µM)
[4]
  MIC: 100 µg/mL (≈ 127 µM)
[5]
  MIC: 0.05 µg/mL (≈ 0.0633 µM)
[6]
  bronchial epithelium reaction: the bronchial epithelium reacts through a proliferation of cells, mainly cup-shaped cells
[6]; obstructed
  histological appearance of obstructed bronchial tract: the bronchial obstruction is formed by abundant mucus admixed with fibrin
[7]
  MIC: 1.5 µg/mL (≈ 1.9 µM)
[8]; 0.30 hours, 18 min
  Hematic levels in the healthy volunteer: 0.27 µg/mL
[8]; 1 hour, 60 min
  Hematic levels in the healthy volunteer: 0.58 µg/mL
[8]; human, blood, po, 500 mg, 2 hours
  concentration at 2 h: 2100 ng/mL
[8]; human, blood, po, 500 mg, 3 hours
  concentration at 3 h: 1410 ng/mL
[8]; human, blood, po, 500 mg, 4 hours
  concentration at 4 h: 1310 ng/mL
[9]
  ED50: 128 mg/kg
[10]
  MIC: > 200 µg/mL
[11]
  MIC: 0.01 µg/mL (≈ 0.0127 µM)
[12]
  MIC: 3 µg/mL (≈ 3.8 µM)
[13]
  MIC: 0.025 µg/mL (≈ 0.0316 µM)
[14]
  MIC: > 200 µg/mL
[15]
  MIC: 50 µg/mL (≈ 63.3 µM)
[16]
  MIC: 100 µg/mL (≈ 127 µM)
[17]
  MIC: 50 µg/mL (≈ 63.3 µM)
[18]
  MIC: > 200 µg/mL
[19]
  Partial obstruction (% incidence): 20%
  Total obstruction, compact plug (% incidence): 46.66%
  Total obstruction, nodular mass (% incidence): 20%
  Total obstruction, pimply mass (% incidence): 6.66%
[20]
  MIC: 0.4 µg/mL (≈ 0.506 µM)
[21]
  MIC: 0.05 µg/mL (≈ 0.0633 µM)
[22]
  MIC: 0.05 µg/mL (≈ 0.0633 µM)
[23]
  MIC: 100 µg/mL (≈ 127 µM)
[24]
  MIC: 100 µg/mL (≈ 127 µM)
[25]
  MIC: 0.05 µg/mL (≈ 0.0633 µM)
[26]
  MIC: > 200 µg/mL
[27]
  MIC: 6 µg/mL (≈ 7.59 µM)
[28]
  MIC: 50 µg/mL (≈ 63.3 µM)
[29]
  Hematic levels in the rat: 0.04 µg/mL
[30]
  MIC: 0.4 µg/mL (≈ 0.506 µM)
[31]
  MIC: 200 µg/mL (≈ 253 µM)
[32]
  MIC: > 200 µg/mL
[33]
  MIC: 3 µg/mL (≈ 3.8 µM)
[34]
  MIC: > 200 µg/mL
[35]
  MIC: 0.025 µg/mL (≈ 0.0316 µM)
[36]
  MIC: 0.1 µg/mL (≈ 0.127 µM)
[37]
  MIC: 0.8 µg/mL (≈ 1.01 µM)
[38]
  MIC: 100 µg/mL (≈ 127 µM)
[39]
  MIC: 0.01 µg/mL (≈ 0.0127 µM)
[40]
  MIC: 0.4 µg/mL (≈ 0.506 µM)
[41]
  concentration at 0.3 h: 680 ng/mL
  concentration at 1 h: 1740 ng/mL
  concentration at 2 h: 2490 ng/mL
  concentration at 3 h: 1490 ng/mL
  concentration at 4 h: 610 ng/mL
  concentration at 5 h: 370 ng/mL
[42]
  ED50: 2.2 mg/kg
[43]
  MIC: 50 µg/mL (≈ 63.3 µM)
[44]
  MIC: 0.2 µg/mL (≈ 0.253 µM)
[45]
  MIC: 100 µg/mL (≈ 127 µM)
[46]
  MIC: 3 µg/mL (≈ 3.8 µM)
[47]
  MIC: 0.8 µg/mL (≈ 1.01 µM)
[48]
  MIC: 100 µg/mL (≈ 127 µM)
